Results: patent US10889543B2, “Fine-tune modulators of neuronal excitability for neuropsychiatric disorders” (THE BOARD OF REGENTS OF THE UNIVERSITY OF TEXAS SYSTEM, priority 2016, dated 2021)
Residues, ends and D or L forms follow the SMILES beside them. *: point of attachment. Fmoc = O=C(OCC1c2ccccc2-c2ccccc21)*; Cbz = O=C(OCc1ccccc1)*; Boc = CC(C)(C)OC(=O)*

Target: T1, FGF14:Nav1.6 complex (Homo sapiens, UniProt Q92915)
T1 construct: FGF14 and the C-tail of Nav1.6 channels are fused to vectors expressing CLuc and NLuc luciferase reporter; expressed in transfected cells; host or cells: HEK293, transient transfection
T1 sequence (Q92915 1-252 isoform Q92915-2): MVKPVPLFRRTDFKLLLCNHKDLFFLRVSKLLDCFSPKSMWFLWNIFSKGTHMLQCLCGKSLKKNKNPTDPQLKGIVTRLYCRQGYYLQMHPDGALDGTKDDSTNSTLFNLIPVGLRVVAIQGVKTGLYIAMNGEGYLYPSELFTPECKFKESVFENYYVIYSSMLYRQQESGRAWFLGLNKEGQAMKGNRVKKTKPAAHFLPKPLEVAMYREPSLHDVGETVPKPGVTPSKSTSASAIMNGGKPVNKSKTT
Experiment: Split-luciferase complementation assay (LCA) in HEK293 cells expressing CLuc-FGF14 and CD4-Nav1.6-NLuc
Assay type: cell-based
Settings: 50 μM, normalized to DMSO control
Description: Detailed methods for LCA can be found is known in the art. See e.g., Shavkunov A. S., et al., Methods in Molecular Biology 1278:497-514 (2015). Statistical values were calculated as mean and standard error of the mean (mean±SEM), unless otherwise specified. The statistical significance (*p<0.05) of different groups was determined by Student's t-test, one-way ANOVA with post-hoc Bonferroni's method or Kruskal-Wallis one-way ANOVA on ranks with post-hoc Dunn's method using Sigma Stat (San Jose, Calif.) and Graph PrismR (La Jolla, Calif.) software. Dose-response modulation was determined by: y=START+(END−START)*x^n/(k^n+x^n) where k, Michaelis constant; n, cooperative sites; x, independent variable; y, dependable variable.
To monitor the role of compounds of the invention in the FGF14:Nav1.6 complex, certain embodiments of the invention were screened by split-luciferase complementation assay (LCA) where FGF14 and the C-tail of Nav1.6 channels are fused to vectors expressing CLuc and NLuc luciferase reporter. Compounds of the invention, as exemplified by, compounds ZL0141, ZL0148, ZL0181, and ZL0182 (see FIG. 1) were tested at 50 μM in HEK293 cells expressing CLuc-FGF14 and CD4:Nav1.6-NLuc. […] None of the tested compounds interfered with the full-length luciferase enzyme (FIG. 2B, Chart C). Dose-response studies were then performed with compounds ZL0148, ZL0181, and ZL0182 against the FGF14:Nav1.6 complex.

Compound	luminescence response compared to control (DMSO)
CC(=O)N[C@@H](Cc1ccccc1)C(=O)N[C@@H](CC(C)C)C(=O)N[C@@H](CCCCNC(=O)OC(C)(C)C)C(N)=O [ZL0148, Ac-Phe-Leu-Lys(Boc)-NH2] (Ac-Phe-Leu-Lys(Boc)-NH2)	132±9%
CC(C)C[C@H](NC(=O)[C@H](Cc1ccccc1)NC(=O)OCc1ccccc1)C(=O)N1CCC[C@H]1C(N)=O [ZL0141, Z-Phe-Leu-Pro-NH2] (Cbz-Phe-Leu-Pro-NH2)	103±14%
CC(=O)N[C@@H](Cc1ccccc1)C(=O)N[C@@H](CC(C)C)C(=O)N1CCC[C@H]1C(=O)N[C@@H](CCCCNC(=O)OCC1c2ccccc2-c2ccccc21)C(=O)O [ZL0182, Ac-Phe-Leu-Pro-Lys(Fmoc)-OH] (Ac-FLPK(Fmoc)-OH)	129±13%
